Values after ≈ are worked out from the molar mass of the structure shown.
Experiments:
[1] = Oral bioavailability in rat; format: ADME, organism-based; settings: in vivo
[2] = Inhibition of Leukotriene B4 production in human blood Polymorphonuclear neutrophil cells; format: functional, tissue-based
[3] = Cmax in rat plasma at 20 mg/kg, po; format: ADME, organism-based; design: dose 20 mg/kg, route po
[4] = Stability of the compound in 0.01 N HCL at pH 2.0 assessed as half-life; format: physicochemical
[5] = test system: Plasmodium falciparum; assay: Antiplasmodial activity against Plasmodium falciparum W2 assessed as inhibition of parasite growth; format: functional, organism-based
[6] = test system: Plasmodium falciparum; assay: Antiplasmodial activity against Plasmodium falciparum FcM29 assessed as inhibition of plasmodial growth; format: functional, organism-based
[7] = Stability of the compound in 20% aqueous dioxane solution at 30 degreeC assessed as compound hydrolysis by measuring rate constant; format: physicochemical; settings: buffer
[8] = Stability of the compound at pH 8 assessed as compound hydrolysis by measuring half-life; format: physicochemical; settings: buffer
[9] = target: T1, Neutrophil elastase (Homo sapiens) (UniProt P08246); assay: Time-dependent inhibition of human leukocyte elastase assessed as observed binding constant
T1 sequence (whole entry): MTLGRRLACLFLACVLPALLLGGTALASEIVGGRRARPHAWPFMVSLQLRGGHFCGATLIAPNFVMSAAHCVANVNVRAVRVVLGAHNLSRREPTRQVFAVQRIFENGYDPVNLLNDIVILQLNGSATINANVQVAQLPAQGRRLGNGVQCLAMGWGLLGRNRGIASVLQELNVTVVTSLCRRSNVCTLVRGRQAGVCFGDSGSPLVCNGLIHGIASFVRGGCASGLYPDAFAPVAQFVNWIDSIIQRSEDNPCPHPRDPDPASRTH

[10] = test system: Hepatitis C virus; assay: Antiviral activity against Hepatitis C virus genotype 1a harboring NS5A Y93H mutant; format: functional, organism-based, Hepacivirus hominis
[11] = Oral bioavailability in dog; format: ADME, organism-based, Canis lupus familiaris; settings: in vivo
[12] = Oral bioavailability in monkey; format: ADME, organism-based, Macaca mulatta; settings: rhesus monkey, in vivo
[13] = Oral bioavailability in human; format: ADME, organism-based; settings: in vivo
[14] = target: Human immunodeficiency virus type 1 protease (Human immunodeficiency virus 1, UniProt Q72874); assay: Inhibition of HIV-1 protease
[15] = Aqueous solubility of compound; format: physicochemical; settings: aqueous (not further specified)
[16] = Aqueous stability of the compound assessed as acid-catalyzed decomposition by measuring rate constant; format: physicochemical; settings: buffer
[17] = Inhibition of Calcium channel (unknown origin); design: species or system Homo sapiens
[18] = Dissociation constant, pKa of the compound; format: physicochemical
[19] = test system: Escherichia coli; assay: Inhibition of Escherichia coli beta-lactamase at 1 uM relative to control
[20] = test system: Staphylococcus aureus; assay: Antibacterial activity against Staphylococcus aureus 01A0785 assessed as inhibition of bacterial growth by microdilution method; format: functional
[21] = test system: Escherichia coli; assay: Antibacterial activity against Escherichia coli 51A0150 assessed as inhibition of bacterial growth by microdilution method; format: functional
[22] = test system: Pasteurella multocida; assay: Antibacterial activity against Pasteurella multocida 59A0067 assessed as inhibition of bacterial growth by microdilution method; format: functional
[23] = test system: Human immunodeficiency virus 1; assay: microbe, parasite or virus in culture; settings: Human immunodeficiency virus 1, LAV
[24] = Stability of the compound assessed as acid hydrolysis by measuring half-life; format: physicochemical

N#Cc1cc(-c2ccoc2)c2ccc(OCc3cccc(C4(O)CCOCC4)n3)cc2c1
bioavailability [1]: 26% | IC50 [2]: 0.6 nM | Cmax [3]: 2000 nM

C[C@@H]1CC[C@H]2[C@@H](C)C(=O)O[C@@H]3O[C@@]4(C)CC[C@@H]1[C@]32OO4 [ARTEMISININ]
half-life [4]: 24 h | IC50 [5]: 2.8 nM | IC50 [6]: 7 nM

Clc1ccc(C2(c3ccc(Cl)cc3)OCCO2)cc1
K [7]: 3.3 10^-3/M/s

CC[C@@H]1C(=O)N(C(=O)NCc2ccccc2)[C@H]1Oc1ccc(C(=O)O)cc1
half-life [8]: > 80 h | K [9]: 2 10^3/M/s

COC(=O)N[C@H](C(=O)N1CCC[C@H]1c1ncc(-c2cc(F)c3c(c2)O[C@@H](c2cnc(C4CC4)s2)n2c-3cc3cc(-c4cnc([C@@H]5CCCN5C(=O)[C@@H](NC(=O)OC)C(C)C)[nH]4)ccc32)[nH]1)C(C)C [RUZASVIR]
EC50 [10]: 0.06 nM

COC(=O)N[C@H](C(=O)N1CCC[C@H]1c1nc(-c2ccc3c(c2)O[C@@H](c2ccccc2)n2c-3cc3cc(-c4c[nH]c([C@@H]5CCCN5C(=O)[C@@H](NC(=O)OC)C(C)C)n4)ccc32)c[nH]1)C(C)C [ELBASVIR]
bioavailability [11]: 35% | EC50 [10]: 2.4 nM | bioavailability [12]: 17% | bioavailability [1]: 9% | bioavailability [13]: 32%

CC(C)(C)NC(=O)[C@@H]1C[C@@H]2CCCC[C@@H]2CN1C[C@@H](O)[C@H](Cc1ccccc1)NC(=O)O[C@H]1CC[C@H]2OCC[C@@H]12
IC50 [14]: 17 nM

CC(C)[C@H](N)C(=O)OCC(CO)OCn1cnc2c(=O)nc(N)[nH]c21 (stereo not given in full) [VALGANCICLOVIR]
bioavailability [13]: 65% | solubility [15]: 70 mg/mL (≈ 198000 µM)

C1CCC2(CC1)OOC1(O2)C2CC3CC(C2)CC1C3 (stereo not given)
bioavailability [1]: < 1% | solubility [15]: < 0.001 mg/mL

c1ccc(C2OCCS2)cc1 (stereo not given)
K [16]: 0.0194 min⁻¹

COC(=O)N[C@H](C(=O)N1CCC[C@H]1c1ncc(-c2ccc3c(c2)CCn2c-3cc3cc(-c4cnc([C@@H]5CCCN5C(=O)[C@@H](NC(=O)OC)C(C)C)[nH]4)ccc32)[nH]1)C(C)C
EC50 [10]: 170 nM

FC(F)(F)c1cc(CO[C@H]2CCCN[C@H]2c2ccccc2)cc(C(F)(F)F)c1
IC50 [17]: 780 nM | pKa [18]: 8.3

c1ccc(C2(c3ccccc3)OCCO2)cc1
K [7]: 3.6 10^-2/M/s

COC(=O)N[C@H](C(=O)N1CCC[C@H]1c1ncc(-c2ccc3c(c2)OCn2c-3cc3cc(-c4cnc([C@@H]5CCCN5C(=O)[C@@H](NC(=O)OC)C(C)C)[nH]4)ccc32)[nH]1)C(C)C
EC50 [10]: 5 nM

CC1(C)[C@H](C(=O)O)N2C(=O)/C(=C/c3ccccn3)[C@H]2S1(=O)=O
inhibition [19]: 100%

Cc1ccc(C2OCCS2)cc1 (stereo not given)
K [16]: 0.146 min⁻¹

CC[C@@H]1C[C@H](O)[C@@H](C)NC[C@H](C)C[C@@]2(C)OC3(CCN(Cc4ccccc4)CC3)O[C@@H]([C@H](C)[C@H]2O[C@@H]2O[C@H](C)C[C@H](N(C)C)[C@H]2O)[C@@H](C)C(=O)O1
MIC [20]: 0.6 µg/mL (≈ 0.836 µM) | MIC [21]: 0.2 µg/mL (≈ 0.279 µM) | MIC [22]: 0.03 µg/mL (≈ 0.0418 µM)

Clc1ccc(C2OCCS2)cc1 (stereo not given)
K [16]: 0.00978 min⁻¹

Nc1nc(=O)n([C@H]2CS[C@@H](CO)O2)cc1F
EC50 [23]: 840 nM

CC[C@@H]1C[C@H](O)[C@@H](C)NC[C@H](C)C[C@@]2(C)OC3(CCN(C(=O)c4ccco4)CC3)O[C@@H]([C@H](C)[C@H]2O[C@@H]2O[C@H](C)C[C@H](N(C)C)[C@H]2O)[C@@H](C)C(=O)O1
MIC [20]: 0.78 µg/mL (≈ 1.08 µM) | MIC [21]: 0.78 µg/mL (≈ 1.08 µM) | MIC [22]: 0.05 µg/mL (≈ 0.0693 µM)

O=c1[nH]cnc2c1ncn2[C@@H]1O[C@H](CO)C[C@@H]1F
half-life [24]: > 1 min

CC1(C)[C@H](C(=O)O)N2C(=O)/C(=C/c3ccccc3)[C@H]2S1(=O)=O
inhibition [19]: 28%

O=C1CCC2(CC1)OOC1(O2)C2CC3CC(C2)CC1C3 (stereo not given)
bioavailability [1]: < 1% | solubility [15]: < 0.001 mg/mL

N#Cc1cc(-c2ccoc2)c2ccc(OCc3cccc(C4(O)CC5COC(C4)O5)c3)cc2c1 (stereo not given)
bioavailability [1]: 10% | IC50 [2]: 3 nM | Cmax [3]: 2500 nM

Nc1ncnc2c1ncn2[C@@H]1O[C@H](CO)C[C@@H]1F [LODENOSINE]
half-life [24]: > 1 min

CC(C)(C)NC(=O)[C@@H]1C[C@@H]2CCCC[C@@H]2CN1C[C@@H](O)[C@H](Cc1ccccc1)NC(=O)O[C@H]1CO[C@H]2CCC[C@H]21
IC50 [14]: 190 nM

Reference: ChEMBL document CHEMBL5244275, “Geminal Diheteroatomic Motifs: Some Applications of Acetals, Ketals, and Their Sulfur and Nitrogen Homologues in Medicinal Chemistry and Drug Design” (J Med Chem, 2021)
